Laboratory results: ChEMBL document CHEMBL1212917, “Substituted E-3-(3-indolylmethylene)-1,3-dihydroindol-2-ones with antitumor activity. In depth study of the effect on growth of breast cancer cells” (2010)
Structures can show the parent of a compound that is named as a salt.

Legend:
Type in all cases: functional
[1] = Growth inhibition of human CNS cancer cells after 48 hrs; settings: Cancer cell lines; for CC50: read-out: LC50 (the source's name)
[2] = Growth inhibition of human breast cancer cells after 48 hrs; settings: Cancer cell lines; for CC50: read-out: LC50 (the source's name)
[3] = Growth inhibition of human melanoma cells after 48 hrs; settings: Melanoma cell; for CC50: read-out: LC50 (the source's name)
[4] = Growth inhibition of human leukemia cells after 48 hrs; settings: Leukemia cell; for CC50: read-out: LC50 (the source's name)
[5] = Growth inhibition of human renal cancer cells after 48 hrs; settings: Cancer cell lines; for CC50: read-out: LC50 (the source's name)
NSCLC = test: Growth inhibition of human NSCLC cells after 48 hrs
[6] = Growth inhibition of human Ovarian cancer cells after 48 hrs; settings: Cancer cell lines; for CC50: read-out: LC50 (the source's name)
[7] = Growth inhibition of human colon cancer cells after 48 hrs; settings: Cancer cell lines; for CC50: read-out: LC50 (the source's name)
[8] = Growth inhibition of human prostate cancer cells after 48 hrs; settings: Cancer cell lines; for CC50: read-out: LC50 (the source's name)

Compound	CC50 [1]	GI50 [2]	CC50 [2]	GI50 [3]	CC50 [3]	GI50 [4]	CC50 [4]	GI50 [5]	GI50 [1]	GI50 (NSCLC)	GI50 [6]	GI50 [7]	GI50 [8]	CC50 [5]	CC50 [6]	CC50 [7]	CC50 [8]	LC50 (NSCLC)	further results
O=C1Nc2ccc(F)cc2/C1=C\c1c(Cl)[nH]c2c1ccc1ccccc12	51.3 µM	0.4 µM	70.8 µM	–	–	–	–	–	–	–	–	–	–	–	–	–	–	–	–
COc1cc2c(cc1C)NC(=O)/C2=C/c1c(Cl)n(C)c2cc(C)c(OC)cc12	–	18.6 µM	95.5 µM	15.1 µM	57.5 µM	18.2 µM	97.7 µM	41.7 µM	26.9 µM	34.7 µM	30.2 µM	22.9 µM	22.4 µM	–	–	–	–	–	–
COc1ccc2[nH]cc(/C=C3/C(=O)Nc4ccccc43)c2c1	75.9 µM	3.47 µM	91.2 µM	6.61 µM	75.9 µM	2.34 µM	43.6 µM	5.75 µM	6.17 µM	5.13 µM	6.31 µM	2.24 µM	5.62 µM	83.2 µM	81.3 µM	70.8 µM	83.2 µM	–	TGI [3]: 27.5 µM; TGI [4]: 7.76 µM; TGI [5]: 26.3 µM; TGI [1]: 28.8 µM; TGI (NSCLC): 25.1 µM; TGI [6]: 30.2 µM; TGI [7]: 15.5 µM; TGI [2]: 18.2 µM; TGI [8]: 24 µM
COc1cc2c(/C=C3/C(=O)N(C)c4ccc(O)cc43)c(Cl)n(C)c2cc1C	29.5 µM	0.06 µM	40.7 µM	0.11 µM	33.1 µM	0.05 µM	19.9 µM	0.11 µM	0.04 µM	0.22 µM	0.26 µM	0.07 µM	0.1 µM	36.3 µM	47.9 µM	26.9 µM	24 µM	42.7 µM	–
COc1ccc2c(c1)/C(=C\c1c(Cl)[nH]c3ccc(N(C)C)cc13)C(=O)N2	32.4 µM	1.15 µM	55 µM	3.55 µM	44.7 µM	1.62 µM	72.4 µM	3.02 µM	2.09 µM	3.02 µM	3.39 µM	1.55 µM	2.88 µM	52.5 µM	50.1 µM	30.2 µM	50.1 µM	58.9 µM	–
COc1cc2c(cc1C)NC(=O)/C2=C/c1c(Cl)[nH]c2c1ccc1ccccc12	–	–	–	–	–	–	–	–	0.31 µM	–	–	–	–	–	–	–	–	47.9 µM	–
COc1cc2c(cc1C)N(C)C(=O)/C2=C/c1c(Cl)n(C)c2cc(C)c(OC)cc12	61.7 µM	6.76 µM	83.2 µM	16.2 µM	–	6.92 µM	–	15.8 µM	10.5 µM	19.5 µM	18.6 µM	20.4 µM	35.5 µM	77.6 µM	89.1 µM	97.7 µM	–	93.3 µM	–
COc1cc2c(/C=C3/C(=O)Nc4cc(Cl)ccc43)c(Cl)[nH]c2cc1C	41.7 µM	0.15 µM	39.8 µM	0.23 µM	35.5 µM	0.14 µM	58.9 µM	0.23 µM	0.12 µM	0.43 µM	0.28 µM	0.17 µM	0.22 µM	46.8 µM	49 µM	25.7 µM	41.7 µM	52.5 µM	–
COc1cc2c(/C=C3/C(=O)Nc4ccc(Br)cc43)c(Cl)[nH]c2cc1C	35.5 µM	2.14 µM	50.1 µM	2.14 µM	41.7 µM	1.62 µM	37.1 µM	2.45 µM	1.58 µM	3.02 µM	2 µM	1.95 µM	2.24 µM	37.1 µM	38.9 µM	23.4 µM	30.9 µM	53.7 µM	–
O=C1Nc2cccc(Cl)c2/C1=C\c1c(Cl)[nH]c2c1ccc1ccccc12	53.7 µM	5.01 µM	67.6 µM	4.57 µM	46.8 µM	5.5 µM	75.9 µM	8.91 µM	3.63 µM	9.55 µM	2.51 µM	4.9 µM	10.2 µM	56.2 µM	57.5 µM	47.9 µM	63.1 µM	72.4 µM	TGI [3]: 19.1 µM; TGI [4]: 25.7 µM; TGI [5]: 23.4 µM; TGI [1]: 17.8 µM; TGI (NSCLC): 28.2 µM; TGI [6]: 13.2 µM; TGI [7]: 17.4 µM; TGI [2]: 19.9 µM; TGI [8]: 31.6 µM
CN(C)c1ccc2[nH]c(Cl)c(/C=C3/C(=O)N(C)c4ccc(O)cc43)c2c1	85.1 µM	3.8 µM	–	4.57 µM	66.1 µM	16.6 µM	–	4.37 µM	6.03 µM	6.61 µM	8.32 µM	4.9 µM	12.9 µM	87.1 µM	95.5 µM	61.7 µM	–	85.1 µM	TGI [3]: 26.3 µM; TGI [5]: 31.6 µM; TGI [1]: 33.9 µM; TGI (NSCLC): 46.8 µM; TGI [6]: 55 µM; TGI [7]: 20.9 µM; TGI [2]: 30.9 µM
CN(C)c1ccc2[nH]c(Cl)c(/C=C3/C(=O)Nc4ccc(Cl)cc43)c2c1	18.2 µM	1.32 µM	55 µM	2.69 µM	37.1 µM	1.62 µM	91.2 µM	1.78 µM	1.58 µM	2.57 µM	3.31 µM	2.09 µM	2.45 µM	29.5 µM	41.7 µM	22.9 µM	46.8 µM	46.8 µM	–
COc1cc2c(/C=C3/C(=O)Nc4ccc(Br)cc43)c(Cl)n(C)c2cc1C	38.9 µM	0.95 µM	31.6 µM	1.55 µM	31.6 µM	2.51 µM	–	1.7 µM	0.93 µM	1.91 µM	3.47 µM	1.55 µM	1.55 µM	26.9 µM	43.6 µM	29.5 µM	26.3 µM	37.1 µM	–
COc1cc2c(/C=C3/C(=O)N(C)c4ccccc43)c(Cl)n(C)c2cc1C	74.1 µM	0.28 µM	95.5 µM	0.34 µM	69.2 µM	0.25 µM	46.8 µM	0.33 µM	0.2 µM	0.58 µM	0.38 µM	0.2 µM	0.39 µM	79.4 µM	95.5 µM	72.4 µM	66.1 µM	–	–
COc1cc2c(/C=C3/C(=O)N(C)c4ccc(O)cc43)c[nH]c2cc1C	67.6 µM	2.75 µM	63.1 µM	3.24 µM	66.1 µM	3.47 µM	–	5.89 µM	3.72 µM	6.03 µM	5.62 µM	2.95 µM	3.55 µM	93.3 µM	95.5 µM	–	–	91.2 µM	TGI [3]: 15.1 µM; TGI [4]: 36.3 µM; TGI [5]: 28.2 µM; TGI [1]: 24 µM; TGI (NSCLC): 21.9 µM; TGI [6]: 31.6 µM; TGI [7]: 24.6 µM; TGI [2]: 16.2 µM; TGI [8]: 15.8 µM
CN(C)c1ccc2[nH]c(Cl)c(/C=C3/C(=O)Nc4ccc(O)cc43)c2c1	–	2.88 µM	–	5.25 µM	79.4 µM	2.24 µM	–	5.13 µM	3.8 µM	5.13 µM	7.24 µM	3.89 µM	8.91 µM	91.2 µM	–	69.2 µM	–	95.5 µM	–
O=C1Nc2ccc(Cl)cc2/C1=C\c1c(Cl)[nH]c2c1ccc1ccccc12	–	–	–	–	–	–	–	–	–	–	–	–	0.38 µM	–	–	–	–	–	–
CC[C@]1(O)C[C@H]2CN(CCc3c([nH]c4ccccc34)[C@@](C(=O)OC)(c3cc4c(cc3OC)N(C=O)[C@H]3[C@@](O)(C(=O)OC)[C@H](OC(C)=O)[C@]5(CC)C=CCN6CC[C@]43[C@@H]65)C2)C1 [VINCRISTINE SULFATE]	200 µM	0.32 µM	316 µM	0.16 µM	251 µM	0.1 µM	631 µM	0.32 µM	0.13 µM	0.25 µM	0.32 µM	0.1 µM	0.13 µM	251 µM	316 µM	79.4 µM	316 µM	–	–
COc1cc2c(/C=C3/C(=O)N(C)c4ccccc43)c[nH]c2cc1C	95.5 µM	1.78 µM	–	3.09 µM	97.7 µM	2 µM	93.3 µM	4.17 µM	1.07 µM	6.31 µM	7.76 µM	0.76 µM	4.17 µM	–	–	97.7 µM	–	93.3 µM	TGI [3]: 74.1 µM; TGI [4]: 35.5 µM; TGI [5]: 60.3 µM; TGI [1]: 42.7 µM; TGI (NSCLC): 66.1 µM; TGI [6]: 60.3 µM; TGI [7]: 60.3 µM; TGI [2]: 55 µM; TGI [8]: 81.3 µM
COc1cc2c(/C=C3/C(=O)Nc4ccccc43)c[nH]c2cc1C	53.7 µM	0.12 µM	–	–	–	0.09 µM	–	–	–	–	–	–	–	–	–	–	–	–	–
